# Assays:
# Experiment in all cases: relative viability (nuclei count vs DMSO), 5 days (fraction); higher = more cells survive
# ABC-1 = system: ABC-1
# Summary of the method: (§1)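 Lung cancer cell lines in 1536-well plates got either a single drug or a fixed anchor-drug dose together with five library-drug doses (not always all listed) in √10 steps, by pin tool, on the day after seeding. Nuclei were counted after 5 days, and relative viability is the treated-to-vehicle ratio of nuclei counts. Values are medians of duplicate plates.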
# NCI-H2009 = system: NCI-H2009
# Summary of the method: as §1
# SK-MES-1 = system: SK-MES-1
# Summary of the method: as §1
# NCI-H1993 = system: NCI-H1993
# Summary of the method: as §1
# NCI-H596 = system: NCI-H596
# Summary of the method: as §1
# SK-LU-1 = system: SK-LU-1
# Summary of the method: as §1
# LK-2 = system: LK-2
# Summary of the method: as §1
# NCI-H2228 = system: NCI-H2228
# Summary of the method: as §1
# NCI-H2170 = system: NCI-H2170
# Summary of the method: as §1
# NCI-H1793 = system: NCI-H1793
# Summary of the method: as §1
# A-427 = system: A-427
# Summary of the method: as §1
# NCI-H1944 = system: NCI-H1944
# Summary of the method: as §1
# SW 1573 = system: SW 1573
# Summary of the method: as §1
# NCI-H727 = system: NCI-H727
# Summary of the method: as §1
# COR-L23 = system: COR-L23
# Summary of the method: as §1
# HARA = system: HARA
# Summary of the method: as §1
# HOP-62 = system: HOP-62
# Summary of the method: as §1
# SW 900 = system: SW 900
# Summary of the method: as §1
# NCI-H3122 = system: NCI-H3122
# Summary of the method: as §1
# EMC-BAC-2 = system: EMC-BAC-2
# Summary of the method: as §1
# PC-3 [JPC-3] = system: PC-3 [JPC-3]
# Summary of the method: as §1
# LXF-289 = system: LXF-289
# Summary of the method: as §1
compound,measurement,setting,value
O=C(O)c1ccc(-c2c[nH]c3ncc(-c4ccccc4)cc23)cc1C1CCCC1 + O=C(CCCCCCC(=O)Nc1ccccc1)NO [Vorinostat] (partner 1 µM),relative viability,ABC-1; first compound 0.04 µM,1.12
same,relative viability,ABC-1; first compound 0.1265 µM,1.36
same,relative viability,ABC-1; first compound 0.4 µM,1.31
same,relative viability,ABC-1; first compound 1.265 µM,0.985
same,relative viability,NCI-H2009; first compound 0.04 µM,0.719
same,relative viability,NCI-H2009; first compound 0.1265 µM,0.733
same,relative viability,NCI-H2009; first compound 0.4 µM,0.744
same,relative viability,NCI-H2009; first compound 1.265 µM,0.635
same,relative viability,SK-MES-1; first compound 0.04 µM,1.13
same,relative viability,SK-MES-1; first compound 0.1265 µM,1.19
same,relative viability,SK-MES-1; first compound 0.4 µM,1.27
same,relative viability,SK-MES-1; first compound 1.265 µM,0.876
same,relative viability,NCI-H1993; first compound 0.04 µM,0.908
same,relative viability,NCI-H1993; first compound 0.1265 µM,1.07
same,relative viability,NCI-H1993; first compound 0.4 µM,0.725
same,relative viability,NCI-H1993; first compound 1.265 µM,0.311
same,relative viability,NCI-H596; first compound 0.04 µM,0.499
same,relative viability,NCI-H596; first compound 0.1265 µM,0.657
same,relative viability,NCI-H596; first compound 0.4 µM,0.583
same,relative viability,NCI-H596; first compound 1.265 µM,0.571
same,relative viability,SK-LU-1; first compound 0.04 µM,0.793
same,relative viability,SK-LU-1; first compound 0.1265 µM,0.717
same,relative viability,SK-LU-1; first compound 0.4 µM,0.684
same,relative viability,SK-LU-1; first compound 1.265 µM,0.364
same,relative viability,LK-2; first compound 0.04 µM,0.333
same,relative viability,LK-2; first compound 0.1265 µM,0.311
same,relative viability,LK-2; first compound 0.4 µM,0.385
same,relative viability,LK-2; first compound 1.265 µM,0.199
same,relative viability,NCI-H2228; first compound 0.04 µM,0.831
same,relative viability,NCI-H2228; first compound 0.1265 µM,0.652
same,relative viability,NCI-H2228; first compound 0.4 µM,0.745
same,relative viability,NCI-H2228; first compound 1.265 µM,0.291
same,relative viability,NCI-H2170; first compound 0.04 µM,0.82
same,relative viability,NCI-H2170; first compound 0.1265 µM,0.863
same,relative viability,NCI-H2170; first compound 0.4 µM,0.893
same,relative viability,NCI-H2170; first compound 1.265 µM,0.734
same,relative viability,NCI-H1793; first compound 0.04 µM,0.835
same,relative viability,NCI-H1793; first compound 0.1265 µM,1.16
same,relative viability,NCI-H1793; first compound 0.4 µM,0.84
same,relative viability,NCI-H1793; first compound 1.265 µM,0.744
same,relative viability,A-427; first compound 0.04 µM,0.822
same,relative viability,A-427; first compound 0.1265 µM,0.84
same,relative viability,A-427; first compound 0.4 µM,0.793
same,relative viability,A-427; first compound 1.265 µM,0.742
same,relative viability,NCI-H1944; first compound 0.04 µM,0.53
same,relative viability,NCI-H1944; first compound 0.1265 µM,0.573
same,relative viability,NCI-H1944; first compound 0.4 µM,0.582
same,relative viability,NCI-H1944; first compound 1.265 µM,0.465
same,relative viability,SW 1573; first compound 0.04 µM,0.949
same,relative viability,SW 1573; first compound 0.1265 µM,0.878
same,relative viability,SW 1573; first compound 0.4 µM,0.699
same,relative viability,SW 1573; first compound 1.265 µM,0.656
same,relative viability,NCI-H727; first compound 0.04 µM,0.991
same,relative viability,NCI-H727; first compound 0.1265 µM,1.19
same,relative viability,NCI-H727; first compound 0.4 µM,1.31
same,relative viability,NCI-H727; first compound 1.265 µM,1.18
same,relative viability,COR-L23; first compound 0.04 µM,0.468
same,relative viability,COR-L23; first compound 0.1265 µM,0.403
same,relative viability,COR-L23; first compound 0.4 µM,0.467
same,relative viability,COR-L23; first compound 1.265 µM,0.233
same,relative viability,HARA; first compound 0.04 µM,0.558
same,relative viability,HARA; first compound 0.1265 µM,0.49
same,relative viability,HARA; first compound 0.4 µM,0.568
same,relative viability,HARA; first compound 1.265 µM,0.405
same,relative viability,HOP-62; first compound 0.04 µM,0.694
same,relative viability,HOP-62; first compound 0.1265 µM,0.606
same,relative viability,HOP-62; first compound 0.4 µM,0.594
same,relative viability,HOP-62; first compound 1.265 µM,0.48
same,relative viability,SW 900; first compound 0.04 µM,0.602
same,relative viability,SW 900; first compound 0.1265 µM,0.611
same,relative viability,SW 900; first compound 0.4 µM,0.582
same,relative viability,SW 900; first compound 1.265 µM,0.437
same,relative viability,NCI-H3122; first compound 0.04 µM,1.1
same,relative viability,NCI-H3122; first compound 0.1265 µM,1.07
same,relative viability,NCI-H3122; first compound 0.4 µM,1.12
same,relative viability,NCI-H3122; first compound 1.265 µM,0.855
same,relative viability,EMC-BAC-2; first compound 0.04 µM,0.421
same,relative viability,EMC-BAC-2; first compound 0.1265 µM,0.575
same,relative viability,EMC-BAC-2; first compound 0.4 µM,0.449
same,relative viability,EMC-BAC-2; first compound 1.265 µM,0.391
same,relative viability,PC-3 [JPC-3]; first compound 0.04 µM,0.803
same,relative viability,PC-3 [JPC-3]; first compound 0.1265 µM,0.836
same,relative viability,PC-3 [JPC-3]; first compound 0.4 µM,0.787
same,relative viability,PC-3 [JPC-3]; first compound 1.265 µM,0.667
same,relative viability,LXF-289; first compound 0.04 µM,0.769
same,relative viability,LXF-289; first compound 0.1265 µM,0.773
same,relative viability,LXF-289; first compound 0.4 µM,0.632
same,relative viability,LXF-289; first compound 1.265 µM,0.398
